The values below come from patent US7049444B2, “3-azabicyclo[3.1.0]hexane derivatives useful in therapy” (Pfizer Inc., priority 1998, dated 2006).

Where a name gives a salt, the structure may show the parent alone.

Consider `CC1(c2cccc(NS(C)(=O)=O)c2)C2CN(CCc3ccc(C(F)(F)F)cc3)CC21` (stereo not drawn), for which the melting point (as a rule, the temperature of the solid-liquid transition) lay within 159 to 161 °C. With `CC1(c2cccc(NS(C)(=O)=O)c2)C2CN(CCCc3ccccc3)CC21` (stereo not drawn) (as salt: benzenesulfonate) the figure was 166 to 168 °C; with `CC1(c2cccc(NS(C)(=O)=O)c2)C2CN(CCCc3ccccc3)CC21` (stereo not drawn) (as salt: hydrochloride), 212 to 214 °C; with `CC1(c2cccc(NS(C)(=O)=O)c2)C2CN(CCCc3ccccc3)CC21` (stereo not drawn) (as salt: tartrate), 162 to 164 °C.

With `CC1(c2cccc(NS(C)(=O)=O)c2)C2CN(CCCc3ccccc3)CC21` (stereo not drawn) (as salt: toluenesulfonate), the melting point fell in the range of 182 to 184 °C. Consider `CC1(c2cccc(NS(C)(=O)=O)c2)C2CN(Cc3ccccc3)CC21` (stereo not drawn) [Example 22, N-[3-(3-Benzyl-6-methyl-3-azabicyclo[3.1.0]hex-6-yl)phenyl]methanesulfonamide], for which the melting point lay within 117 to 118 °C.
